Data: patent publication US11661431B2, “Thienopyrrole compounds” (Gilead Sciences, Inc., priority 2021, dated 2023)

How the values were obtained:
TLR7 = TLR7 (Homo sapiens (Human), UniProt Q9NYK1); assay: TLR7 human peripheral blood mononuclear cell (PBMC) cell-based assay (GS-986 as agonist; IL-6 and IFNα readout); details: human PBMCs, TLR7 agonist GS-986 at 400 nM, 6 hours, antagonist potency; read-out: TLR-7 EC50
In short: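 Human PBMCs (100,000 cells/well) preincubated 1 h at 37 °C with antagonist in 10-point dose response, then stimulated with TLR7 agonist for a further 6 h at 37 °C, 5% CO2. Supernatant IL-6 and IFNα measured by electrochemiluminescence immunoassay.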

TLR8 = TLR8 (Homo sapiens (Human), UniProt Q9NR97); assay: TLR8 human peripheral blood mononuclear cell (PBMC) cell-based assay (Compound A as agonist; TNFα and IL12p40 readout); details: human PBMCs, TLR8 agonist Compound A at 800 nM, 6 hours, antagonist potency; read-out: TLR-8 EC50
TLR8, sequence (Q9NR97 27-1041): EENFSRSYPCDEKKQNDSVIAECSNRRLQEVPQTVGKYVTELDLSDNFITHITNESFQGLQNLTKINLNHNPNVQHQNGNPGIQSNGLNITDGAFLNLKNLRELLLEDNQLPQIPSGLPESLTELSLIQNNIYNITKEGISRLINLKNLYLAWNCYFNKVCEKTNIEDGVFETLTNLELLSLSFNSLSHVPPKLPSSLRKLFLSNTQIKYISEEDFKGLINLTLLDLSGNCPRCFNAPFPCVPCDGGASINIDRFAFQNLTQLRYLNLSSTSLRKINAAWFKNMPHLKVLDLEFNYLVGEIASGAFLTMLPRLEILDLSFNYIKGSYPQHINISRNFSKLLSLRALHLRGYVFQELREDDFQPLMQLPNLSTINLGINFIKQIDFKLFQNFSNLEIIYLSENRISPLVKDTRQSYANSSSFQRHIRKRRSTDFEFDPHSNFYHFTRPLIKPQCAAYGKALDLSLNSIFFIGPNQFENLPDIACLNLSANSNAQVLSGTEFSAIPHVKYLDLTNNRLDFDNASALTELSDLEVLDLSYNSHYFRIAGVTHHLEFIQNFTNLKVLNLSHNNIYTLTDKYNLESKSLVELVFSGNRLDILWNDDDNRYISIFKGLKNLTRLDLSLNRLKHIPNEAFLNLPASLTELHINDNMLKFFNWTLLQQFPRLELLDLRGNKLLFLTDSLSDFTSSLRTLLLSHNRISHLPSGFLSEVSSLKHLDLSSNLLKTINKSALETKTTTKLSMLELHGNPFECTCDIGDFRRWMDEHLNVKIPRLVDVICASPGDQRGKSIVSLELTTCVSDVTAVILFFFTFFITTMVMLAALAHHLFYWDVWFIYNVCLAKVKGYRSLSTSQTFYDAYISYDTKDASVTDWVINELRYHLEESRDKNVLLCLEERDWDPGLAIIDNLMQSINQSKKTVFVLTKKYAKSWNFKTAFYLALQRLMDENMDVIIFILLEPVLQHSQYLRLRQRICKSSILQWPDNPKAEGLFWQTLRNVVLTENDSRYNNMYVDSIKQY

TLR7, sequence (Q9NYK1 27-1049): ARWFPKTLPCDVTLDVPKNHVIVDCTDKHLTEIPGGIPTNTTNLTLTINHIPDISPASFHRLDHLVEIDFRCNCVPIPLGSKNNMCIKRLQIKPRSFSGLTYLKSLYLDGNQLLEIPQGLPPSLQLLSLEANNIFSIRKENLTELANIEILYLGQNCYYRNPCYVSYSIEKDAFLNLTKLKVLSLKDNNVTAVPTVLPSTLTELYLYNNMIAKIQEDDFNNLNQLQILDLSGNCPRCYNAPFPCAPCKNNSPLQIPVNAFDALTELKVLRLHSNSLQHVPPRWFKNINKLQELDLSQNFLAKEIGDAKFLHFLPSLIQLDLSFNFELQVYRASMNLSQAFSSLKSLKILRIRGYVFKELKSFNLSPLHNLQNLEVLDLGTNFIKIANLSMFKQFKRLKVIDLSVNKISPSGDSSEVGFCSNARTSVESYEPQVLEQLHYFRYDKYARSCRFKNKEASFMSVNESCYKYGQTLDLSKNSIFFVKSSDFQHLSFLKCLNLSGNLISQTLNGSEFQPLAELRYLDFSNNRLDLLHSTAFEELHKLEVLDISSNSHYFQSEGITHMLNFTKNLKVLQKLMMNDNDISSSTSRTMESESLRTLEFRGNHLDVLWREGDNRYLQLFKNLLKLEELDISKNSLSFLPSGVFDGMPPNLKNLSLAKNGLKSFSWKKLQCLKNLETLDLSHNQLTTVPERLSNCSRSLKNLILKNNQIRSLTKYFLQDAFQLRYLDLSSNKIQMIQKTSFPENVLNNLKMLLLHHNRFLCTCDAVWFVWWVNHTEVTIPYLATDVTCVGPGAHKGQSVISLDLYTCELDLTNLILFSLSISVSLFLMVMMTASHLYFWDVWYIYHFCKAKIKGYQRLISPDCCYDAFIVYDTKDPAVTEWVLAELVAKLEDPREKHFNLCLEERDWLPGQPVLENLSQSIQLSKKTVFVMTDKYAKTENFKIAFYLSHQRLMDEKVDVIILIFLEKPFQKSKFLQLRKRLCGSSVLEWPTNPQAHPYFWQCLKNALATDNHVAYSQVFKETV

Row | SMILES | EC50 (TLR7) | EC50 (TLR8)
1 | Cc1c(C2CCN(C(=O)[C@H]3CNCCO3)CC2)sc2[nH]c(-c3cc(C)c4ncnn4c3)c(C(C)C)c12 [Example 46] | 0.59 nM | 13 nM
2 | Cc1c(-c2[nH]c3sc([C@@H]4C[C@@H]5C[C@H]4CN5C(=O)[C@H]4C[C@@H](F)CN4)c(C)c3c2C(C)C)cn2ncnc2c1C [Example 147] | 0.23 nM | 16 nM
3 | Cc1c(-c2[nH]c3sc([C@@H]4C[C@@H]5C[C@H]4CN5C(CO)CO)c(C)c3c2C(C)C)cn2ncnc2c1C [Example 308, 2-((1S,4R,5R)-5-(5-(7,8-dimethyl-[1,2,4]triazolo[1,5-a]pyridin-6-yl)-4 isopropyl-3-methyl-6H-thieno[2,3-b]pyrrol-2-yl)-2-azabicyclo[2.2.1]heptan-2-yl)propane-1,3-diol] | < 0.05 nM | 1.16 nM
4 | Cc1c(-c2[nH]c3sc(C4CC(c5nnc([C@H]6COCCN6)o5)C4)c(C)c3c2C(C)C)cn2ncnc2c1C (single isomer, unassigned) [Example 240] | 4.86 nM | 48.4 nM
5 | Cc1c(C2CCN(C(=O)[C@@H]3COC(C)(C)CN3)CC2)sc2[nH]c(-c3cc(C)c4ncnn4c3)c(C(C)C)c12 [Example 159] | 0.94 nM | 31.5 nM
6 | Cc1c(C2CCNCC2)sc2[nH]c(-c3ccc(C#N)c4ncccc34)c(C(C)C)c12 [Example 247] | 0.2 nM | 13.5 nM
7 | Cc1cc(-c2[nH]c3sc([C@H]4C[C@@]5(CCNC5)C4)c(C)c3c2C(C)C)cn2ncnc12 [Example 125] | 0.33 nM | 1.5 nM
8 | Cc1c(C2CCCN(CC(N)=O)CC2)sc2[nH]c(-c3cc(C)c4ncnn4c3)c(C(C)C)c12 (stereo not shown) [Example 161, 2-(4-(4-isopropyl-3-methyl-5-(8-methyl-[1,2,4]triazolo[1,5-a]pyridin-6-yl)-6H-thieno[2,3-b]pyrrol-2-yl)azepan-1-yl)acetamide] | 0.13 nM | 7.29 nM
9 | Cc1c(-c2[nH]c3sc([C@@H]4C[C@@H]5C[C@H]4CN5CC(=O)NC[C@@H](F)C(C)(C)O)c(C)c3c2C(C)C)cn2ncnc2c1C [Example 273] | 1.24 nM | 1.01 nM
10 | Cc1c(C23CC2CN(CC(N)=O)C3)sc2[nH]c(-c3cc(C)c4ncnn4c3)c(C(C)C)c12 (stereo not shown) [Example 197] | 1.74 nM | 29.8 nM
11 | Cc1c(-c2[nH]c3sc(C4CCN(C(=O)[C@H]5CO[C@@H](C)CN5)CC4)c(C)c3c2C(C)C)cn2ncnc2c1C [Example 280] | 1.96 nM | 41.2 nM
12 | Cc1c(-c2[nH]c3sc(C4COC5(CCN(CC(N)=O)CC5)C4)c(C)c3c2C(C)C)cn2ncnc2c1C (stereo not shown) [Example 80] | 2.15 nM | 15.2 nM
13 | Cc1c(-c2[nH]c3sc([C@@H]4C[C@@H]5C[C@H]4CN5CC(=O)NC45CC(O)(C4)C5)c(C)c3c2C(C)C)cn2ncnc2c1C [Example 271] | 0.49 nM | 0.12 nM
14 | Cc1c(-c2[nH]c3sc([C@@H]4C[C@@H]5CC[C@H]4CN5CC(N)=O)c(C)c3c2C(C)C)cn2ncnc2c1C (single isomer, unassigned) [Example 95] | 0.7 nM | 4.45 nM
15 | Cc1c(-c2[nH]c3sc(C4C[C@@H]5C[C@H]4CC5NC4COC4)c(C)c3c2C(C)C)cn2ncnc2c1C (stereo partly drawn) [Example 253, N-((1S,4S)-5-(5-(7,8-dimethyl-[1,2,4]triazolo[1,5-a]pyridin-6-yl)-4-isopropyl-3-methyl-6H-thieno[2,3-b]pyrrol-2-yl)bicyclo[2.2.1]heptan-2-yl)oxetan-3-amine] | 0.1 nM | 1.06 nM
16 | Cc1c(-c2[nH]c3sc(C4COC5(CCNCC5)C4)c(C)c3c2C(C)C)cn2ncnc2c1C (stereo not shown) [Example 78, 3-(5-(7,8-dimethyl-[1,2,4]triazolo[1,5-a]pyridin-6-yl)-4-isopropyl-3-methyl-6H-thieno[2,3-b]pyrrol-2-yl)-1-oxa-8-azaspiro[4.5]decane] | 0.42 nM | 5.44 nM
17 | Cc1c(-c2[nH]c3sc([C@H]4C[C@@H]5CC[C@H]4CN5CC(=O)N(C)C)c(C)c3c2C(C)C)cn2ncnc2c1C (single isomer, unassigned) [Example 212] | 0.45 nM | 6.78 nM
18 | Cc1c(C2CCN(C(=O)CN3CCOCC3)CC2)sc2[nH]c(-c3cc(C)c4ncnn4c3)c(C(C)C)c12 [Example 50] | 1.76 nM | 35.9 nM
19 | Cc1c(-c2[nH]c3sc(C4CCN(C(=O)[C@H]5C[C@@]6(CNCCO6)C5)CC4)c(C)c3c2C(C)C)cn2ncnc2c1C [Example 94, [4-[5-(7,8-dimethyl-[1,2,4]triazolo[1,5-a]pyridin-6-yl)-4-isopropyl-3-methyl-6H-thieno[2,3-b]pyrrol-2-yl]-1-piperidyl]-(5-oxa-8-azaspiro[3.5]nonan-2-yl)methanone] | 0.05 nM | 2.3 nM
20 | Cc1c(C2CCN(C(=O)[C@H]3C[C@H](F)CN3)CC2)sc2[nH]c(-c3cc(C)c4ncnn4c3)c(C(C)C)c12 [Example 43] | 0.32 nM | 19 nM
21 | Cc1c([C@H]2C[C@H]3CC[C@@H]2CN3CC(N)=O)sc2[nH]c(-c3cc(C)c4ncnn4c3)c(C(C)C)c12 (single isomer, unassigned) [Example 190] | 3.52 nM | 13.8 nM
22 | Cc1cc(-c2[nH]c3sc(C(=O)N(C)C4CCNCC4)cc3c2C(C)C)cn2ncnc12 [Example 1, 4-isopropyl-N-methyl-5-(8-methyl-[1,2,4]triazolo[1,5-a]pyridin-6-yl)-N-(piperidin-4-yl)-6H-thieno[2,3-b]pyrrole-2-carboxamide] | 0.56 nM | 8.93 nM

Row | SMILES | EC50 (TLR7) | EC50 (TLR8)
23 | Cc1c(-c2[nH]c3sc(C4CCN(C(=O)[C@H]5CO[C@@H](C(F)(F)F)CN5)CC4)c(C)c3c2C(C)C)cn2ncnc2c1C [Example 285] | 3.2 nM | 129 nM
24 | Cc1nc2c(C)cc(-c3[nH]c4sc([C@@H]5C[C@@H]6C[C@H]5CN6CC(N)=O)c(C)c4c3C(C)C)cn2n1 [Example 121] | < 0.05 nM | 0.13 nM
25 | Cc1c(C2CCN(S(=O)(=O)N3CCN(C)CC3)CC2)sc2[nH]c(-c3cc(C)c4ncnn4c3)c(C(C)C)c12 [Example 157] | 0.17 nM | 29.6 nM
26 | CCc1c(C2CCN(CC(N)=O)CC2)sc2[nH]c(-c3cc(C)c4ncnn4c3)c(C(C)C)c12 [Example 206] | 0.18 nM | 45.1 nM
27 | Cc1c(-c2[nH]c3sc([C@@H]4C[C@@H]5C[C@H]4CN5CCCS(C)(=O)=O)c(C)c3c2C(C)C)cn2ncnc2c1C [Example 164] | 0.23 nM | < 0.05 nM
28 | Cc1c(CC2CCNCC2)sc2[nH]c(-c3cc(C)c4ncnn4c3)c(C(C)C)c12 [Example 278] | 0.17 nM | 0.8 nM
29 | Cc1nc2c(C)cc(-c3[nH]c4sc(C5CCN(CC(N)=O)CC5)c(C)c4c3C(C)C)cn2n1 [Example 134] | 0.74 nM | 12.6 nM
30 | Cc1c(C2CCN(C(=O)[C@H]3COCCN3C)CC2)sc2[nH]c(-c3cc(C)c4ncnn4c3)c(C(C)C)c12 [Example 48] | 0.29 nM | 19.7 nM
31 | Cc1c(-c2[nH]c3sc(C4CCC5(CC4)CNCCO5)c(C)c3c2C(C)C)cn2ncnc2c1C (single isomer, unassigned) [Example 292, 9-(5-(7,8-dimethyl-[1,2,4]triazolo[1,5-a]pyridin-6-yl)-4-isopropyl-3-methyl-6H-thieno[2,3-b]pyrrol-2-yl)-1-oxa-4-azaspiro[5.5]undecane] | 0.09 nM | 3.91 nM
32 | Cc1c(-c2[nH]c3sc(C45CCN(CC(N)=O)CC4C5)c(C)c3c2C(C)C)cn2ncnc2c1C (stereo not shown) [Example 93] | 1.36 nM | 18.4 nM
33 | Cc1c(-c2[nH]c3sc(C4CCC(N5CC[C@@H](F)C5)CC4)c(C)c3c2C(C)C)cn2ncnc2c1C (stereo partly shown) [Example 303] | < 0.05 nM | 2.77 nM
34 | Cc1c(C2CC3(CCCN3)C2)sc2[nH]c(-c3cc(C)c4ncnn4c3)c(C(C)C)c12 (stereo not shown) [Example 138] | 0.19 nM | 0.49 nM
35 | Cc1c(C2CCN(CC3(C)COC3)CC2)sc2[nH]c(-c3cc(C)c4ncnn4c3)c(C(C)C)c12 [Example 11] | 2.47 nM | 14.3 nM
36 | Cc1c(-c2ccc(N3CCNCC3)cc2)sc2[nH]c(-c3cc(C)c4ncnn4c3)c(C(C)C)c12 [Example 23] | 0.56 nM | 16.1 nM
37 | Cc1c(-c2[nH]c3sc(C4CCN(CC5CCN(C)C5=O)CC4)c(C)c3c2C(C)C)cn2ncnc2c1C (stereo not shown) [Example 289] | 0.72 nM | 2.33 nM
38 | Cc1c(-c2[nH]c3sc(C4C[C@@H]5C[C@H]4CN5CC(=O)N4CCC4)c(C)c3c2C(C)C)cn2ncnc2c1C (stereo partly shown) [Example 268] | < 0.05 nM | 0.24 nM
39 | Cc1cc(-c2[nH]c3sc(C4CCN(CC(N)=O)CC4)c(C)c3c2C(C)C)cn(C)c1=O [Example 234] | 4.25 nM | 10.6 nM
40 | CCc1c(C2CCN(C(=O)[C@H]3COCCN3)CC2)sc2[nH]c(-c3cc(C)c4ncnn4c3)c(C(C)C)c12 [Example 208] | 0.15 nM | 34.6 nM
41 | Cc1cc(-c2[nH]c3sc([C@H]4C[C@]5(CCN(CC(N)=O)C5)C4)c(C)c3c2C(C)C)cn2ncnc12 [Example 132] | 0.1 nM | 0.54 nM
42 | CCc1c(C2CCN(C(=O)[C@@H]3COCCN3)CC2)sc2[nH]c(-c3cc(C)c4ncnn4c3)c(C(C)C)c12 [Example 207] | 0.19 nM | 32.2 nM
43 | Cc1c(-c2[nH]c3sc(C4CC(n5cc(C6COCCN6)nn5)C4)c(C)c3c2C(C)C)cn2ncnc2c1C (single isomer, unassigned) [Example 244, 3-(1-(3-(5-(7,8-dimethyl-[1,2,4]triazolo[1,5-a]pyridin-6-yl)-4-isopropyl-3-methyl-6H-thieno[2,3-b]pyrrol-2-yl)cyclobutyl)-1H-1,2,3-triazol-4-yl)morpholine] | 0.14 nM | 9.43 nM
44 | Cc1c(C2CCC3(CNC3)C2)sc2[nH]c(-c3cc(C)c4ncnn4c3)c(C(C)C)c12 (stereo not shown) [Example 61] | 0.19 nM | 9.09 nM
